Measured values reported in paper PMC9506420, “Biological Evaluation of 3-Azaspiro[Bicyclo[3.1.0]Hexane-2,5′-Pyrimidines] as Potential Antitumor Agents” (International Journal of Molecular Sciences, 2022).

Assays:
CT26 cells = assay: Actin cytoskeleton staining (rhodamine-phalloidin, confocal microscopy), CT26; assay type: cell-based, mouse; conditions: CT26, 5 μg/mL, 24 h; for percentage of cells with normal stress fibers (C): control 64%
Procedure: (§1) Therefore, in the current study, the actin cytoskeleton structure of HeLa, CT26, and Vero cells was analyzed, after the impact of compounds 4a–i, by the presence of filopodia-like protrusions and the availability of stress fibers (Figure 14, Figure 15 and Figure 16). […] HeLa cells were more sensitive to the action of tested products, compared to CT26 and Vero cells.
(§2) Cells were seeded onto Petri dishes with cover slips at a density of 2 × 10^5 cells per dish and incubated for 24 h. After that, cells were treated with compounds 4d, 4e, 4f, 4h, and 4i (5 μg/mL) for 24 h. The medium was removed, and cells were fixed with 4% paraformaldehyde (Sigma-Aldrich, St. Louis, MO, USA), washed three times with PBS, and permeabilized with 0.3% Triton-X100 (Sigma-Aldrich, St. Louis, MO, USA). The cells were rinsed three times with PBS. Actin filaments (microfilaments) were stained at 37 °C for 15 min with rhodamine-phalloidin (Invitrogen, Carlsbad, CA, USA). The samples were rinsed three times with PBS, followed by embedding in Fluoroshield medium (Sigma-Aldrich, St. Louis, MO, USA). Cells were imaged using an Axio Observer Z1 confocal microscope (Carl Zeiss MicroImaging GmbH, Jena, Germany). In each experiment, at least 30 cells were imaged. Images were analyzed by a pathologist, blinded to the treatment mode used for each group, using ImageJ software.

Vero cells = assay: Actin cytoskeleton staining (rhodamine-phalloidin, confocal microscopy), Vero; assay type: cell-based, African green monkey; conditions: 5 μg/mL, 24 h
Procedure: as §1, §2

HeLa cells = assay: Actin cytoskeleton staining (rhodamine-phalloidin, confocal microscopy), HeLa; assay type: cell-based, human; conditions: 5 μg/mL, 24 h
Procedure: as §1, §2

Row | Compound | percentage of cells with filopodia-like deformations (A) (CT26 cells; control 43%) [%] | percentage of cells with normal stress fibers (C) (CT26 cells) [%] | percentage of cells with disassembled stress fibers (D) (Vero cells) [%] | percentage of cells with filopodia-like deformations (A) (Vero cells) [%] | percentage of cells with normal stress fibers (C) (Vero cells) [%] | percentage of cells without filopodia-like deformations (B) (Vero cells) [%] | percentage of cells with normal stress fibers (C) (HeLa cells; control 80%) [%] | percentage of cells with filopodia-like deformations (A) (HeLa cells; control 91%) [%]
1 | O=C1NC(=O)C2(N[C@@H](c3ccccc3)[C@@]3(c4ccccc4)[C@H](c4ccccc4)[C@@]23c2ccccc2)C(=O)N1 [Compound 4i] | 38 | 38 | 2 | 30 | 98 | 70 |  | 
2 | CCCC[C@@H]1NC2(C(=O)NC(=O)NC2=O)[C@]2(c3ccccc3)[C@@H](c3ccccc3)[C@]12c1ccccc1 [Compound 4e] |  |  | 11 | 44 | 89 | 56 |  | 
3 | CSCC[C@@H]1NC2(C(=O)NC(=O)NC2=O)[C@]2(c3ccccc3)[C@@H](c3ccccc3)[C@]12c1ccccc1 [Compound 4h] |  | 36 | 8 | 46 | 92 | 54 |  | 
4 | CC(C)C[C@@H]1NC2(C(=O)NC(=O)NC2=O)[C@]2(c3ccccc3)[C@@H](c3ccccc3)[C@]12c1ccccc1 [Compound 4f] |  |  | 4 | 43 | 96 | 57 | 10 | 35
5 | CCC[C@@H]1NC2(C(=O)NC(=O)NC2=O)[C@]2(c3ccccc3)[C@@H](c3ccccc3)[C@]12c1ccccc1 [Compound 4d] |  |  | 6 | 45 | 94 | 55 |  | 
